Series [1] in a line: physchem. In kind it is physicochemical. Particulars: for improvement in solubility: by amorphous inclusion complexes with HP-β-CD; for solubility at 24 h: thermodynamic from solid. The method, then:
Concentrations of Hed and Het during solubility, dissolution rate, and permeability studies were measured by high-performance liquid chromatography with the DAD detector (HPLC-DAD). In this study, a Shimadzu Nexera (Shimadzu Corp., Kyoto, Japan) equipped with SCL-40 system controller; DGU-403 degassing unit; LC-40B XR solvent delivery module; SIL-40C XR auto sampler; CTO-40C column oven; SPD-M40 photo diode array detector, was used. For the stationary phase, a Dr. Maisch ReproSil-Pur Basic-C18 100 Å column, 5 µm particle size, 250 × 4.60 mm (Dr. Maisch, Ammerbuch-Entringen, Germany), was used. The mobile phase was methanol/0.1% acetic acid (65:35 v/v). The mobile phase was vacuum-filtered through a 0.45 µm nylon filter (Phenomenex, CA, USA). The experimental conditions were as follows: 0.9 mL·min^−1 flow rate, wavelength 280 nm for Hed and 288 nm for Het, and the column temperature at 30 °C. The injection volume differed depending on the assay. […] The method duration time was 10 min.
A total of 0.1 M HCl was obtained from the analytical weighed amount in accordance with the BASF SE recommendations. Phosphate buffer at pH 6.8 was prepared according to the following description: in a 1000 mL volumetric flask, we placed 250 mL of 0.2 N potassium dihydrogen phosphate solution, then added 112 mL of 0.2 N sodium hydroxide solution and filled the mixture up to 1000 mL with distilled water. High-quality pure water was prepared using a Direct-Q 3 UV purification system (Millipore, Molsheim, France, model Exil SA 67120).
An excess number of obtained systems and physical mixtures was placed in a 10 mL glass tube; then, 5.0 mL of medium (water, HCl 0.1 N or phosphate buffer (pH 6.8)) was added. All samples were mixed using a vortex mixer for 30 s and left at room temperature for 24 h. The obtained solutions were filtered through a 0.2 μm nylon membrane filter (Sigma-Aldrich, St. Louis, MO, USA) and analyzed for Hed and Het content using the developed and validated the HPLC method. The analysis was performed in triplicate.

A short description of series [2]: PAMPA GIT permeability assay. In kind it is in vitro ADME. The procedure:
(§1) In vitro gastrointestinal (GIT) and blood–brain barrier (BBB) permeability was studied using the PAMPA (Parallel Artificial Membrane Permeability Assay) model. The sandwich consists of two 96-well microfilter plates. The PAMPA system contains two chambers: the donor at the bottom and the acceptor chamber at the top. The chambers are separated by a 120 μm thick microfilter disc coated with a 20% (w/v) dodecane solution of a lecithin mixture (Pion, Inc.). The analyzed samples were prepared by dissolving an excess amount of pure compound and systems in water. In addition, the pure compound was dissolved in DMSO. The donor solution was adjusted to pH ≈ 6.8 for GIT application and to pH ≈ 7.4 for BBB application using 0.5 M NaOH. The plates were combined and then incubated for 4 h for both models in a humidity-saturated atmosphere with the temperature set at 37 °C. The apparent permeability coefficient (Papp) was calculated according to the following equation: Papp=−ln(1−CA/Cequilibrium)/S×(1/VD+1/VA)×t where VD is donor volume; VA is acceptor volume; Cequilibrium is equilibrium concentration, Cequilibrium=CD×VD+CA×VA/VD+VA; S is membrane area; and t is incubation time (in seconds).

Series [3] can be described thus: PAMPA BBB permeability assay. In kind it is in vitro ADME. Particulars: for Papp at 4 h: PAMPA. The method, then:
as §1
(PAMPA measures passive passage across an artificial lipid membrane.)

The target in series [4] is T1, AChE (Homo sapiens, UniProt P22303).
T1 construct: purchased Sigma Aldrich, Germany
T1 sequence (P22303 32-614): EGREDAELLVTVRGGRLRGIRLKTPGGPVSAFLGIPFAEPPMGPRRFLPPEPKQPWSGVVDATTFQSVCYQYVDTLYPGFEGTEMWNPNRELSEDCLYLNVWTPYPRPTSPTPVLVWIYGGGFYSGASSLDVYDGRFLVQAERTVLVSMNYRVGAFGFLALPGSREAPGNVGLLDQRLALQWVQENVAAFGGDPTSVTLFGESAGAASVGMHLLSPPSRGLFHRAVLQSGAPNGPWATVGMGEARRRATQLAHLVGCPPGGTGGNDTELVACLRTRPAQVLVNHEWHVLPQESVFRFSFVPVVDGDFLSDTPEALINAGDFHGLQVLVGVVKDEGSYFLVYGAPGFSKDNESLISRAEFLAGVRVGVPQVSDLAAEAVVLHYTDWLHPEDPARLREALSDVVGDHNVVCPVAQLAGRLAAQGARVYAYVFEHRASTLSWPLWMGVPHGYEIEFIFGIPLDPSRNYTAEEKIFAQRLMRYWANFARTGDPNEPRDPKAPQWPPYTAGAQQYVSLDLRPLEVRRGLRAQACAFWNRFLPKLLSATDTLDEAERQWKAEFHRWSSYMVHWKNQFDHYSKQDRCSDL
As to the kind of experiment: Acetylcholinesterase (AChE) inhibition assay. In kind it is biochemical. The method, then: (§2) To assess the activity of Hed, Het, and systems, the spectrometric method according to the outlined procedure was applied. A Multiskan GO 1510 (Thermo Fisher Scientific, Vantaa, Finland) plate reader was used for measurements of 96-well plates of the maximum volume of 300 μL. The hydrolysis of acetylthiocholine/butyrylthiocholine caused a color change. The absorbance of the enzymes was measured at a wavelength of 412 nm, 10 min after pipetting on a microplate. The reaction mixture containing 0.1 mL of 0.3 mM 5,5-dithio-bis-(2-nitrobenzoic acid) (DTNB, Sigma Aldrich, Germany), 10 mM NaCl and 2 mM MgCl2·6H2O solution, 0.575 mL 50 mM Tris-HCl buffer (pH = 8.0), 25 µL of 0.28 units/mL AChE/BChE (Sigma Aldrich, Germany), and 0.2 mL of the tested system was measured at a wavelength of 405 nm and at a temperature of 22 °C. The measurement was conducted after 20 min (BChE) or 60 min (AChE) after adding all ingredients into a microplate. The blank sample contained Tris-HCl buffer instead of the tested compounds. All samples were analyzed in six independent replicates. The inhibitory activity of each enzyme was calculated with the use of following equation: Inhibition ability (%)=100−Ap−Abp×100/Ak−Ab where Ak is absorbance of control, Ab is the blank of the control, Ap is the absorbance of the sample, and Abp is the blank of the sample.

Series [5] addresses T2, BChE (Homo sapiens, UniProt P06276).
T2 construct: purchased Sigma Aldrich, Germany
As to the kind of experiment: Butyrylcholinesterase (BChE) inhibition assay. In kind it is biochemical. The method, then:
as §2

Details of series [6]: method as in doi:10.1016/j.lwt.2019.03.059. Particulars: cited from earlier work.

These results are taken from article PMC9000012, “Amorphous Inclusion Complexes: Molecular Interactions of Hesperidin and Hesperetin with HP-Β-CD and Their Biological Effects” (International Journal of Molecular Sciences, 2022).

Converted amounts (≈) assume the structure as drawn. “Also recorded” adds a separate entry of the source. Like-named read-outs stand apart in the source and are kept apart here.

T2 sequence (P06276 29-602, species assumed): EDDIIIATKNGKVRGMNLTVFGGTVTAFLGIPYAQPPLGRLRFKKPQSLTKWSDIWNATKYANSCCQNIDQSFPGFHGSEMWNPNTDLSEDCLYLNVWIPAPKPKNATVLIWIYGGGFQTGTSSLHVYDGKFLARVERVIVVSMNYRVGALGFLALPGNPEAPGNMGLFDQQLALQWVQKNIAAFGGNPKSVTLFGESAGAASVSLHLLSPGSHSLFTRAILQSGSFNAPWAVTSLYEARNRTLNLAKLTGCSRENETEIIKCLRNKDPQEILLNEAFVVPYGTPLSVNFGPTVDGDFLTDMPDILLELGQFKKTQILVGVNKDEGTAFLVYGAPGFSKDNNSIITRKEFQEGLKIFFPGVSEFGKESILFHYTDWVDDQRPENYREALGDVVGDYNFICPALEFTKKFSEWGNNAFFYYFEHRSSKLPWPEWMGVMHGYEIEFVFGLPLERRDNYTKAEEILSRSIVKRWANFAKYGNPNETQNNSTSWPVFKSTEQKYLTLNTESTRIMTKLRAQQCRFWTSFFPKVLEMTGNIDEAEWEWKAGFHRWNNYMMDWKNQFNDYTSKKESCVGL

The solubility is how much of the substance goes into solution per volume. The low end stands for little dissolved substance, the high end for much dissolved substance. In general, Papp refers to a coefficient for how fast a substance crosses the barrier. Turning to `COc1ccc([C@@H]2CC(=O)c3c(O)cc(O[C@@H]4O[C@H](CO[C@@H]5O[C@@H](C)[C@H](O)[C@@H](O)[C@H]5O)[C@@H](O)[C@H](O)[C@H]4O)cc3O2)cc1O` [Hed, hesperidin], the improvement in solubility result in series [1] is “over 1000 times”. Besides, the solubility at 24 h in series [1] (pH 6.8, aqueous buffer) is 9 ± 2 µg/mL (≈ 14.7 µM); in series [1] (simulated gastric fluid), 8 ± 3 µg/mL (≈ 13.1 µM); in series [1] (water), 9 ± 1 µg/mL (≈ 14.7 µM). Further, the “GIT PAMPA permeability, result in words” value in series [2] (PAMPA) is recorded as “poorly absorbed”. Also, the Papp at 4 h was 0.0554 ×10⁻⁶ cm/s in series [2] (PAMPA, pH 6.8) and 0.558 ×10⁻⁶ cm/s in series [3] (pH 7.4). The molecule further had an AChE inhibition in series [4] of 9.24 ± 0.81%. Moreover, in series [5], the BChE inhibition was determined as 13.86 ± 1.62%.
Consider `COc1ccc([C@@H]2CC(=O)c3c(O)cc(O)cc3O2)cc1O` [Het, hesperetin], for which the improvement in solubility in series [1] is recorded as greater than 2000 times. The solubility at 24 h in series [1] (pH 6.8, aqueous buffer) is 15 ± 0.2 µg/mL (≈ 49.6 µM); in series [1] (simulated gastric fluid), 6 ± 0.1 µg/mL (≈ 19.8 µM); in series [1] (water), 8 ± 0.1 µg/mL (≈ 26.5 µM). Besides, the Papp at 4 h in series [2] (PAMPA, compound dissolved in DMSO, donor pH ≈ 6.8, 4 h, 37 °C, read-out: PAMPA GIT Papp) came out at 9.61 ×10⁻⁶ cm/s; in series [3] (compound dissolved in DMSO, donor pH ≈ 7.4, 4 h, 37 °C, read-out: PAMPA BBB Papp), 5.58 ×10⁻⁶ cm/s. Also, in series [2] (passive diffusion), the “GIT PAMPA permeability, result in words” value is “readily absorbed; also recorded: well absorbed”. For the same molecule, the “BBB PAMPA permeability, result in words” value in series [3] (passive diffusion) is recorded as “easily able to pass this biological barrier; also recorded: crosses the blood–brain barrier”. In series [5], this molecule returned a BChE inhibition of 12.96 ± 3.15%. Also, the improved solubility in series [6] (Het complex with HP-β-CD) is 467 fold; in series [6] (Het complex with β-CD) it was 30 fold.
